Laboratory results reported in patent US10793525B2, “13-cis-RAMBA retinamides that degrade MNKs for treating cancer” (UNIVERSITY OF MARYLAND, BALTIMORE, priority 2014, dated 2020).

What was measured:
[1] = system: MDA-MB-231 human breast cancer cells; assay: MTT cell proliferation assay, MDA-MB-231; assay type: cell-based; settings: MDA-MB-231 cells, SEM < 10%, read-out: GI50s MDA-MB-231
From the text: (§1) MCF-7, MDA-MB-231, MDA-MB-468 and SKBR-3 human breast cancer cells and LNCaP, PC-3, and CWR22Rv1 human prostate carcinoma cells (American Type Culture Collection, Manassas, Va., USA) were maintained in RPMI 1640 media (Gibco-Life Technologies, Grand Island, N.Y., USA) supplemented with 10% fetal bovine serum and 1% penicillin/streptomycin. Western blotting was done as mentioned previously,^8, 13b using the following antibodies: AR, Bad, Bax, Bcl-2, eIF4E, Mnk1, Mnk-2, N-cadherin, PARP, peIF4E^ser209 purchased from Cell Signaling Technology, Danvers, Mass., USA. Anti-Mnk2 was purchased from Sigma-Aldrich and normal rabbit IgG, cyclin D1 was from Santa Cruz Biotechnology, CA, USA.
(§2) Cells were plated (2500 cells/well) in 96 well plates and treated with or without specified compounds as described previously.^8a, 12b
(§3) The clinically relevant retinoids, ATRA and 4-HPR and the Mnk inhibitor, cercosporamide were used as comparators in the assays.

[2] = system: SKBR-3 human breast cancer cells; assay: MTT cell proliferation assay, SKBR-3; assay type: cell-based; settings: SK-BR-3, SKBR-3 cells, SEM < 10%, read-out: GI50s SKBR-3
From the text: as §1, §2, §3

[3] = system: CWR22Rv1 human prostate carcinoma cells; assay: MTT cell proliferation assay, CWR22Rv1; assay type: cell-based; settings: SEM < 10%, read-out: GI50s CWR22Rv1
From the text: as §1, §2, §3
The PC-3 cell line was the least sensitive to all the compounds tested.

[4] = system: Mnk1 and 2, peIF4E, eIF4E and cPARP; assay: Western blot of lysates from MCF-7, MDA-MB-231 and MDA-MB-468 cells; assay type: cell-based, human; settings: MCF-7, MDA-MB-231, MDA-MB-468 cells, 24 hours
From the text: as §1
As we previously reported, the anti-proliferative effects of the 1st generation MNKDAs in BC cells was due to degradation of Mnk1/2 with subsequent depletion of peIF4E and induction of apoptosis.^8a To determine if these compounds modulate Mnk1/2 and related oncogenic proteins, the inventors performed western blot of lysates from MCF-7, MDA-MB-231 and MDA-MB-468 human breast cancer cells treated with Compounds 16, 20, and 22, or with vehicle (DMSO, negative control), or Compound 6 (positive control). Equal protein concentrations from MCF-7 (FIG. 3A), MDA-MB-231 (FIG. 3B) and MDA-MB-468 (FIG. 3C) cells treated for 24 hours with Compounds 16, 20 and 22 at the various concentrations as indicated and Compound 6 (20 μmol/L) were separated by SDS-PAGE and western blots probed with antibodies to Mnk1 and 2, peIF4E, eIF4E and cPARP. Vehicle treated cells were included as control and all blots were reprobed for GAPDH for loading control.

[5] = system: fAR, Mnk1/2, peIF4E, cyclin D1 and cleaved PARP; assay: Western blot of lysates from LNCaP cells; assay type: cell-based, human; settings: 0.6-20 μM, 24 hours
From the text: as §1
Equal protein concentrations from LNCaP cells treated with Compounds 16, 20 and 22 at different concentrations (0.6-20 μM) for 24 hours were separated by SDS-PAGE and western blots probed with antibodies to fAR, Mnk1/2, peIF4E, cyclin D1 and cleaved PARP. Vehicle treated cells were included as a control and all blots were reprobed for β-actin for loading control.

PC-3 cells = assay: Wound-healing assay, PC-3 cell migration; assay type: cell-based, human; settings: 5 μM, 24 hours
Method: Wound healing assay and matrigel invasion assay were also conducted as described previously using highly metastatic PC-3 cells following treatment with 5 μM of RRs for 24 h.^8a,26
Based on previous studies with closely related compound,^8 the inhibitory effects of Compounds 16, 20 and 22 on cell migration were evaluated, using the human metastatic PC cell line, PC-3 by wound-healing assay. PC-3 cells (5×10^5 cells/well) were seeded on Boyden chamber, grown to confluence and scratches made at experimental tome zero. The cells were treated with indicated compounds (5 μM each) for 24 hours. Representative photomicrographs of initial and final wounds are shown at 100× magnification. […] At 24 hours after cell monolayers were wounded, control cells had completely filled in the scratched area.

LNCaP cells = assay: MTT viability of LNCaP cells with AR and/or Mnk1 siRNA knockdown; assay type: cell-based, human
Method: siRNA (100 nM) was transfected into LNCaP cells using Lipofectamine® 2000 Transfection reagent (Invitrogen) as per manufacturer's protocol. Protein silencing was confirmed by immunoblot analysis. For cell growth assay experiments, transfection complex were removed after 18 h, cells were washed twice with PBS and replaced with growth medium. 24 h later drug was added and harvested after 72 h. For Western blot experiment, transfection complexes were washed off after 18 h and replaced with phenol free media for 24 h. Cells were then treated with 20 μM of VNLG-152 for an additional 24 h and cells were lysed using RIPA lysis buffer.^8b, 27 Luciferase assay was conducted in LNCaP cells using the Dual Luciferase kit (Promega) as described earlier.^8b, 13b
To confirm whether AR and Mnk1 are the major anti-cancer targets of these compounds on LNCaP cells, the percentage of cell survival in LNCaP cells was analyzed by MTT assay following transient transfection with AR siRNA and/or Mnk1 siRNA for 18 hours.

[6] = system: MDA-MB-231 xenograft tumors; assay: MDA-MB-231 anti-tumor efficacy study (xenograft); assay type: in vivo
Method: All animal studies were performed according to the guidelines and approval of the Animal Care Committee of the University of Maryland School of Medicine, Baltimore (UMB). Female Athymic Nude mice or male SCID (Charles Rivers Laboratories or UMB facilities) at 4-6 weeks of age were maintained in a pathogen-free environment. MDA-MB-231 (10×10^6) cells were subcutaneously implanted into Athymic Nude mice and CWR22Rv1 (1×10^6) cells into male SCID mice. Mice bearing established tumors (˜100 mm^3) were randomized into treatment groups of 6 and dosed with vehicle (40% β-cyclodexdrin in ddH2O), or compounds 20 and 22 (i.p., formulated in 40% β-cyclodexdrin in ddH2O, once daily, 5 days a week for 28 days).
The National Cancer Institute (NCI) criteria^23 were used to determine tumor growth efficacy of our compounds. Thus, percent test or treatment/control (% T/C), defined as the ratio of the median tumor volume for the treated group versus control group, was calculated as % T/C=[(median tumor volume of treated group at day 28)/(median tumor volume of control group at day 28)]×100.
Indeed, the two compounds were equipotent (FIG. 9A). […] Representative photos of the tumor-bearing mice in the control and the two treatment groups at termination of experiment (day 28) are presented in FIG. 9B.

[7] = MDA-MB-231 xenograft mice, i.p. 20 mg/kg 5×/week over 28 days

Q: `CC1=C(/C=C/C(C)=C/C=C/C(C)=C\C(=O)Nc2cccc(F)c2)C(C)(C)CCC1n1ccnc1` (stereo not drawn) [Compound 20, (2Z,4E,6E,8E)-9-(3-(1H-imidazol-1-yl)-2,6,6-trimethylcyclohex-1-en-1-yl)-N-(3-fluorophenyl)-3,7-dimethylnona-2,4,6,8-tetraenamide] was tested. Which IC50 [1] did it give?
A: 8.51 µM

Q: What about the IC50 [2] of the same compound?
A: 17 µM

Q: What about the IC50 [3] of the same compound?
A: 2.04 µM

Q: What about the “expression of total eIF4E” value [4] of the same compound?
A: no noticeable effects

Q: What about the “expressions of Mnk1, Mnk2 and peIF4E” value [4] of the same compound?
A: significantly and dose-dependently, reduced

Q: What about the “formation of c-PARP (apoptosis)” value [4] of the same compound?
A: dose-dependent formation of c-PARP

Q: And the “cleaved PARP (c-PARP)” value [5]?
A: induced cleaved PARP

Q: And the “cyclin D1” value [5]?
A: significant depletion

Q: What about the “expression of total eIF4E” value [5] of the same compound?
A: no noticeable effects

Q: And the “expressions of fAR, Mnk1 and Mnk2” value [5]?
A: significantly and in a dose-dependent fashion, reduced

Q: What about the “migration of PC-3 cells” value (PC-3 cells) of the same compound?
A: significantly inhibited migration

Q: What about the “cell viability, un-transfected LNCaP cells” value (LNCaP cells; 5 μM, 72 hours, MTT) of the same compound?
A: robust reduction in cell viability

Q: And the “cell viability, LNCaP cells harboring AR or Mnk1 knockdown” value (LNCaP cells; 5 μM, compared to siRNA alone treated counterparts)?
A: sensible decrease in cell viability

Q: What about the “cell viability, LNCaP cells with double knockdown of AR and Mnk1” value (LNCaP cells; compared to cells co-treated with Mnk1 and AR siRNA) of the same compound?
A: did not show any significant decrease in cell viability

Q: And the body weight [6, 7]?
A: did not lose body weight

Q: What about the “signs of toxicity / adverse events” value [6, 7] of the same compound?
A: no apparent adverse events

Q: And the “suppression of tumor growth” value ([6]; MDA-MB-231 xenografts, i.p. 20 mg/kg 5×/week over 28 days)?
A: 85.4%

Q: What about the “% T/C (treated/control median tumor volume)” value ([6]; MDA-MB-231 xenografts, i.p. 20 mg/kg 5×/week, day 28) of the same compound?
A: 14.6%
